Data on two compounds can be found in patent US8710064B2, “2-aryl-4-quinazolinones and their pharmaceutical compositions” (China Medical University, priority 2011, dated 2014).

For one data set, the system named is HSC-3. In words: trypan blue exclusion assay, HSC-3 cells. In kind it is cell-based, human. Particulars: HSC-3 human squamous carcinoma; trypan blue exclusion assay. The procedure:
The HSC-3 (human oral squamous cell carcinoma) were cultured in 1:1 Dulbecco's Modified Eagle's Medium (DMEM) and Ham's Nutrient Mixture F-12, containing 10% FBS (HyClone, Logan, Utah, USA), 100 U/ml penicillin, 100 μg/ml streptomycin (Gibco BRL, Rockville, Md., USA) and 2 mM glutamine (Merck, Darmstadt, Germany).
(§1) Cell viability was also determined by trypan-blue exclusion assay. Cells were seeded in 6-well plates (2×10^4/well) for trypan blue exclusion assay, and incubated for 24 hours at 37° C. Culture medium containing test compound or DMSO (0.006%) was added to each well, and cells were incubated at 37° C. At indicated time points (0, 24, 48, 72 and 96 hr), cells were suspended with 0.05% trypsin-EDTA, and stained with trypan-blue dye (0.4%) (Sigma). The cell viability was evaluated by the percentage of death relative to the total cell, and cell growth curve was determined by number of live cells relative to the total number of cells.
(§2) The anti-proliferation effects of Compounds 17-31 on M21, CH27, H460, Hep3B and HSC-3 cells were evaluated by the trypan blue exclusion assay.

The test system of data set [1] is M21, CH27, H460, Hep3B and HSC-3 cells. The data set is described as follows: trypan blue exclusion assay, cancer cell panel (summary). Conditions: summary of Table 2. In kind it is cell-based. As to the method:
as §1, §2

The next data set relates to CH27. The data set is described as follows: trypan blue exclusion assay, CH27 cells. In kind it is cell-based. Conditions: CH27 human lung squamous carcinoma. The procedure:
CH27 cells (Human lung squamous carcinoma) were grown in monolayer culture in Dulbecco's modified Eagle's medium (DMEM; Life Technologies, Rockville, Md., USA) containing 5% FBS (HyClone, Logan, Utah, USA), 100 U/ml penicillin, […] streptomycin (Gibco BRL, Rockville, Md., USA) and 2 mM glutamine (Merck, Darmstadt, Germany).
as §1, §2

The next data set has as its system H460. In words: trypan blue exclusion assay, H460 cells. In kind it is cell-based. Conditions: NCI-H460, H460 human non-small cell lung cancer. As to the method: (§3) Hep3B (human hepatocellular carcinoma) and H460 (lung non-small carcinoma) cells were grown in monolayer culture in Dulbecco's modified Eagle's medium (DMEM) (Life Technologies, Rockville, Md., USA) containing 5% fetal bovine serum (HyClone, Logan, Utah, USA), 100 U/ml penicillin and 100 μg/ml streptomycin (Gibco BRL, Rockville, Md., USA) and 2 mM glutamine (Merck, Darmstadt, Germany).
as §1, §2

The subject of a further data set is M21. In words: trypan blue exclusion assay, M21 cells. In kind it is cell-based. Particulars: Homo sapiens; M21 skin cancer; trypan blue exclusion assay; read-out: IC50 M21. As to the method: M21 cell line (human malignant melanoma) was provided by Dr. Feng-Yao Tang (China Medical University, Taiwan). Cells were grown in monolayer culture in RPMI-1640 medium, Eagle's minimum essential medium or Dulbecco's modified Eagles medium (Invitrogen Corporation, Grand Island, N.Y., USA) containing 10% fetal bovine serum (FBS; HyClone, Logan, Utah, USA), 100 U/ml penicillin and 100 μg/ml streptomycin (Gibco BRL, Rockville, Md., USA).
as §1, §2

Data set [2] has as its system U87 human glioma cell lines. In words: MTS cell viability assay, U87 glioma cells. In kind it is cell-based. Particulars: 48 hours, mean±SEM, n=3. The procedure:
(§4) The human glioma cell lines U87, U251, T98G, U373, and rat glioma cell line RT2 provided by Dr. Michael Hsiao (Genomics Research Center, Academia Sinica, Taiwan) were cultured in Dulbecco's Modified Eagle medium (DMEM) (Caisson) supplemented with 10% fetal bovine serum (FBS) (Sigma-Aldrich), 2 mM L-glutamine (Caisson), 100 U/ml penicillin, and 100 μg/ml streptomycin (Caisson). The rat glioma C6 cell line provided by Dr. Shun-Fen Tzeng (National Cheng Kung University, Taiwan) was cultured in DMEM/F12 (Caisson) supplemented with 10% fetal bovine serum, 2 mM L-glutamine, 100 U/ml penicillin, and 100 μg/ml streptomycin. The human normal glia cell line SVGP12, kindly provided by Dr. Michael Hsiao, was cultured in Minimum Essential Medium (MEM) (Invitrogen) supplemented with 10% fetal bovine serum, 2 mM L-glutamine, 100 U/ml penicillin, and […]. Primary glia cells were prepared by surgery. Cerebral cortices without meninges were dissected from postnatal (P0-P2) Sprague-Dawley (SD, NCKU Laboratory Animal Center) rats and dissociated in 0.05% trypsin-EDTA (Biowest) at 37° C. for 10 min. Culture medium was added and pipetted for several times, and supernatant was removed after a centrifugation at 1,000 rpm for 5 minutes. […]
(§5) Cell proliferation was determined by MTS (tetrazolium compound, 3-(4,5-dimethylthiazol-2-yl)-5-(3-carboxymethoxyphenyl)-2-(4-sulfophenyl)-2H-tetrazolium) assay (Promega). […] The absorbance of soluble formazan was measured at 490 nm with microplate reader (Molecular device). The cell viability was determined by the percentage of the absorption relative to untreated control. […]
(§6) To investigate the effect of 2-aryl-4-quinazolinone in accordance with the present invention on cell proliferation, glioma cell lines were treated with MJ-66, MJ-68, or MJ-78. […] The cell viability of each group was analyzed by MTS assay (mean±SEM, n=3).

The subject of another data set is C6 rat glioma. In words: MTS cell viability assay, C6 glioma cells. It is filed as cell-based. Particulars: 48 hours, mean±SEM, n=3. As to the method: as §4, §5, §6
A further data set has as its system Hep3B. In words: trypan blue exclusion assay, Hep3B cells. In kind it is cell-based. Conditions: Hep3B human hepatoma. The procedure: as §3, §1, §2
The test system of another data set is C6 glioma cells. The data set is described as follows: G1 synchronized by Ara-C, flow cytometry. It is filed as cell-based, rat. Particulars: 41.6 nM Ara-C for 12 hours. The procedure:
At indicated time points (0, 6, 12 and 24 hr), >10^6 cells were collected and fixed in 70% ethanol over 1 hour at −20° C. After staining with PI as described, DNA content of ten thousand cells was analyzed by flow cytometry.
To investigate the influence of MJ-66 on normal glia such as human glia cell line SVGP12 and rat primary glia cells, cells were treated with different concentrations of MJ-66 in vitro (0.00625, 0.0125, 0.025, 0.05, 0.1 and 1 μM) for different time durations (0, 6, 12 and 24 hours) and the cell viability was assessed by MTS assay. Cells alone or treated with DMSO were used as control. […] However, most glia cells in animals are static and their proliferation rate is almost silent. Therefore, cytosine arabinoside (Ara-C), a DNA synthesis inhibitor, was further used to inhibit glioma cell proliferation and glioma cells were then treated with MJ-66 or DMSO as described in “General materials and methods”. Specifically, after C6 glioma cells were treated with 41.6 nM Ara-C for 12 hours, and then treated with solvent (DMSO) or 60 nM MJ-66 for 0, 6, 12 and 24 hours, the cell cycle distributions and DNA content of the cells were monitored by flow cytometry with propidium iodide staining C6 glioma cells treated with 41.6 nM Ara-C for 12 hours (12 hr) were detected by flow cytometry with propidium iodide staining as control.
Background: A flow cytometer gives signals particle by particle.

As for `O=c1[nH]c(-c2cccc3ccccc23)nc2ccc(N3CCCCC3)cc12` [Compound 26, 6-(Piperidin-1-yl)-2-(naphthalen-1-yl)quinazolin-4-one], the half-maximal inhibitory concentration (IC50) (in general, the midpoint of a concentration-inhibition curve) amounted to 1730 nM with HSC-3; 362 nM in the data set with CH27; 376 nM in the data set on H460; 1590 nM with M21; 540 ± 240 nM in data set [2]; 470 ± 160 nM in the data set on C6 rat glioma. The half-maximal inhibitory concentration (IC50) with Hep3B is 7240 nM. Also, the “cytotoxic effects toward cancer cells” value in data set [1] is listed as “exhibited cytotoxic effects”.

As to `Nc1ccn([C@@H]2O[C@H](CO)[C@@H](O)[C@@H]2O)c(=O)n1` [Ara-C, cytosine arabinoside, reference compound], in the data set on C6 glioma cells, the “cell cycle state of C6 glioma cells” value was “G1 arrest”.
